# Source: US8513232B2, “Substituted spirocyclic piperidine derivatives as histamine-3 (H3) receptor ligands” (Cephalon, Inc., priority 2008, dated 2013)
# Like-named read-outs stand apart in the source and are kept apart here.
# Legend:
# [1] = molecular target: T1, rat histamine H3 receptor (Rattus norvegicus, UniProt Q9QYN8); test: Rat H3 radioligand binding ([3H]-N-alpha-methylhistamine, SPA)
# T1 construct: encoding the entire 445-amino-acid rat histamine H3 receptor; expressed in transfected cells; membrane preparation
# T1 sequence (Q9QYN8 whole entry): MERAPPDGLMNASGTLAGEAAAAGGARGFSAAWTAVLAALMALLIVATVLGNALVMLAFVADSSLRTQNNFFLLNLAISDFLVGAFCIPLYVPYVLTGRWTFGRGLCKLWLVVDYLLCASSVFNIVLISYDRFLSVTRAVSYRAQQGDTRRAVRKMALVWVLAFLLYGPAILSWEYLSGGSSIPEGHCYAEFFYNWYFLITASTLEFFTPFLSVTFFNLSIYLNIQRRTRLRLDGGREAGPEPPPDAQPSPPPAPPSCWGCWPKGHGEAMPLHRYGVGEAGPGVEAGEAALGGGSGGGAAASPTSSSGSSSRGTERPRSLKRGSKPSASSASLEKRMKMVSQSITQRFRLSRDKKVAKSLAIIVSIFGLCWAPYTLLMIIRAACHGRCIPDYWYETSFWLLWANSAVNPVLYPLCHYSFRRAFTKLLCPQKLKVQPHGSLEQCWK
# Procedure, shortened: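 SPA-bead binding assay using [3H]-N-alpha-methylhistamine (approximately 1 nM final) with test compounds from 0.01 nM to 30 μM. Rat H3 receptor membranes came from stably transfected CHO-A3 cells; incubation ran 4 h at room temperature, in the dark, in Tris pH 7.4 buffer with MgCl2 and BSA. Clobenpropit (10 μM) gave non-specific binding.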
# [2] = molecular target: T2, human H3 receptor (Homo sapiens, UniProt Q9Y5N1); test: Human H3 radioligand binding ([3H]-N-alpha-methylhistamine, SPA)
# T2 construct: expressed in transfected cells
# T2 sequence (Q9Y5N1 whole entry): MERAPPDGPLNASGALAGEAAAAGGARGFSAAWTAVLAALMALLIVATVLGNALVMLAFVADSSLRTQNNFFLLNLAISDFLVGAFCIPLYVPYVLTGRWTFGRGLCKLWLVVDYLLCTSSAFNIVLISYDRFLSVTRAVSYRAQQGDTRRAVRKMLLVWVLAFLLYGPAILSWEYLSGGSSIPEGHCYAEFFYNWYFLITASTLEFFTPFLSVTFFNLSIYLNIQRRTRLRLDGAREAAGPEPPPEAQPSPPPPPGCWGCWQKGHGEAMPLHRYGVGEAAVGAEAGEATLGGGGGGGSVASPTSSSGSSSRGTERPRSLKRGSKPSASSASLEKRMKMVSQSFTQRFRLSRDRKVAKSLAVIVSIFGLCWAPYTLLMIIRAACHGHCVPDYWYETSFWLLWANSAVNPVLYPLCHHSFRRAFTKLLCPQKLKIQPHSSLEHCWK
# Procedure, shortened: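 Compounds (0.01 nM-30 μM) competed with approximately 1 nM [3H]-N-alpha-methylhistamine for human H3 receptor in membranes of stably transfected CHO cells, 10 μg protein per well, in Tris-HCl pH 7.4/MgCl2/BSA buffer for 4 h at room temperature. Bound radioligand measured by scintillation proximity; 10 μM clobenpropit gave non-specific binding.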
# [3] = Rat H3 binding, Table B, Examples 136-362, read-out: rat H3 binding Ki
# [4] = Human H3 binding, Table B, Examples 136-362, read-out: hum H3 binding Ki
# [5] = Table C, rat H3 binding, read-out: Rat H3 Ki
# [6] = Table C, human H3 binding, read-out: Human H3 Ki
# [7] = rat H3 binding, Table D, read-out: Rat H3 Ki
# [8] = human H3 binding, Table D, read-out: Human H3 Ki
# [9] = Table A, rat H3 binding, read-out: Rat Ki
# [10] = Table A, human H3 binding, read-out: Human Ki
melting point,"Ki [1, 7] [nM]","Ki [2, 8] [nM]",SMILES,other results
113 to 114 °C,–,–,COCCNC(=O)c1ccc(-c2ccc3c(c2)COC2(CCN(C4CCC4)CC2)O3)cn1 [Example 195],"Ki [1, 3]: < 200 nM; Ki [2, 4]: < 200 nM"
157 to 158 °C,–,–,COC(=O)N1CCN(c2ccc3c(c2)CCC2(CCN(C4CCC4)CC2)O3)CC1 [Example 373],"Ki [1, 5]: < 200 nM; Ki [2, 6]: < 200 nM"
124.6 to 126.4 °C,–,–,COCCNC(=O)c1ccc(-c2ccc3c(c2)COC2(CCN(C4CCC4)CC2)O3)cc1C [Example 255],"Ki [1, 3]: < 200 nM; Ki [2, 4]: < 200 nM"
184 to 185 °C,< 200,< 200,Cc1cc(C(=O)NC2CCOCC2)ccc1-c1ccc2c(c1)COC1(CCN(C3CCC3)CC1)O2 [Example 687],–
182 to 185 °C,–,–,O=C1N(c2ccccc2)CCN1c1ccc2c(c1)CCC1(CCN(C3CCC3)CC1)O2 [Example 229],"Ki [1, 3]: < 200 nM; Ki [2, 4]: < 200 nM"
> 285 °C (dec.),–,–,c1cc2c(cc1N1CCOCC1)CCC1(CCN(C3CCC3)CC1)O2 [Example 403],"Ki [1, 5]: < 200 nM; Ki [2, 6]: < 200 nM"
65 to 68 °C,< 200,< 200,Cc1cc(=O)n(C(C)C)cc1-c1ccc2c(c1)COC1(CCN(C3CCC3)CC1)O2 [Example 759],–
61 to 63 °C,< 200,< 200,CC1CN=C(CCc2ccc3c(c2)COC2(CCN(C4CCC4)CC2)O3)O1 (stereo not drawn) [Example 691],–
103 to 106 °C,< 200,< 200,Cc1noc(C)c1C(=O)N1CCN(c2ccc3c(c2)COC2(CCN(C4CCC4)CC2)O3)C(=O)C1 [Example 738],–
276 to 277 °C,–,–,CNC(=O)c1ccc(-c2ccc3c(c2)COC2(CCN(C4CCC4)CC2)O3)cc1Cl [Example 225],"Ki [1, 3]: < 200 nM; Ki [2, 4]: < 200 nM"
190.8 to 192 °C,–,–,CC(=O)NC1CCN(c2ccc3c(c2)COC2(CCN(C4CCC4)CC2)O3)CC1 [Example 328],"Ki [1, 3]: < 200 nM; Ki [2, 4]: < 200 nM"
158 to 160 °C,< 200,< 200,c1ccn2ncc(-c3ccc4c(c3)COC3(CCN(C5CCC5)CC3)O4)c2c1 [Example 757],–
165 to 167 °C,–,–,O=C(N1CCCC1)N1CCN(c2ccc3c(c2)CCC2(CCN(C4CCC4)CC2)O3)CC1 [Example 388],"Ki [1, 5]: < 200 nM; Ki [2, 6]: < 200 nM"
228 to 230 °C,< 200,< 200,O=c1[nH]cc(-c2ccc3c(c2)COC2(CCN(C4CCC4)CC2)O3)cc1CO [Example 773],–
61 to 63 °C,< 200,< 200,COc1ncc(-c2ccc3c(c2)COC2(CCN(C4CCC4)CC2)O3)cc1O [Example 788],–
178 to 180 °C,–,–,COC(c1ccc2c(c1)COC1(CCN(C3CCC3)CC1)O2)C1CCS(=O)(=O)CC1 (stereo not drawn) [Example 545],Ki ([1]; read-out: Rat H3 kI): < 200 nM; Ki ([2]; read-out: Human H3 Ki): < 200 nM
204.2 to 206.4 °C,< 200,< 200,CN(C)C(=O)NC1CCN(c2ccc3c(c2)CCC2(CCN(C4CCC4)CC2)O3)CC1 [Example 573],–
194 to 196 °C,–,–,O=c1ccc(Cc2ccc3c(c2)COC2(CCN(C4CCC4)CC2)O3)c[nH]1 [Example 527],Ki ([1]; read-out: Rat H3 kI): < 200 nM; Ki ([2]; read-out: Human H3 Ki): < 200 nM
149 to 150 °C,–,–,Cn1cc2c(n1)CCC(c1ccc3c(c1)COC1(CCN(C4CCC4)CC1)O3)=C2 [Example 459],Ki ([1]; read-out: Rat H3 kI): < 200 nM; Ki ([2]; read-out: Human H3 Ki): < 200 nM
135 to 136 °C,< 200,< 200,COc1cc(-c2ccc3c(c2)COC2(CCN(C4CCC4)CC2)O3)c(F)cn1 [Example 754],–
71 to 74 °C,< 200,< 200,CCOC(=O)c1cc(=O)n(C)cc1-c1ccc2c(c1)COC1(CCN(C3CCC3)CC1)O2 [Example 762],–
95 to 100 °C,–,–,Fc1ncccc1-c1ccc2c(c1)COC1(CCN(C3CCC3)CC1)O2 [Example 47],"Ki [1, 9]: < 200 nM; Ki [2, 10]: < 200 nM"
198 to 199 °C,–,–,O=C(Nc1ccc2c(c1)COC1(CCN(C3CCC3)CC1)O2)c1ccncn1 [Example 297],"Ki [1, 3]: < 200 nM; Ki [2, 4]: < 200 nM"
180 to 182 °C,< 200,< 200,CN(C)C(=O)CCc1ccc2c(c1)CCC1(CCN(C3CCC3)CC1)O2 [Example 603],–
175 to 177 °C,< 200,< 200,CNC(=O)c1ccc(-c2ccc3c(c2)COC2(CCN(C4CCC4)CC2)O3)cc1OC [Example 633],–

melting point,"Ki [1, 7] [nM]","Ki [2, 8] [nM]",SMILES,other results
102 to 103 °C,< 200,< 200,Cc1cnc(C)c(-c2ccc3c(c2)COC2(CCN(C4CCC4)CC2)O3)n1 [Example 752],–
47 to 49 °C,–,–,Cc1nn(C)c(C)c1-c1ccc2c(c1)CCC1(CCN(C3CCC3)CC1)O2 [Example 171],"Ki [1, 3]: < 200 nM; Ki [2, 4]: < 200 nM"
205 to 207 °C,< 200,< 200,c1cc2c(cc1-c1cn[nH]c1)COC1(CCN(C3CCC3)CC1)O2 [Example 750],–
61 °C,–,–,O=C(c1cccc(-c2ccc3c(c2)OC2(CCN(C4CCC4)CC2)OC3)c1)N1CCOCC1 [Example 96],"Ki [1, 9]: 200 to 1000 nM; Ki [2, 10]: 200 to 1000 nM"
191 to 192 °C,–,–,CC(C)NC(=O)c1ccc(-c2ccc3c(c2)CCC2(CCN(C4CCC4)CC2)O3)cc1 [Example 302],"Ki [1, 3]: < 200 nM; Ki [2, 4]: < 200 nM"
151 to 152 °C,–,–,O=S1(=O)CCC(c2ccc3c(c2)COC2(CCN(C4CCC4)CC2)O3)C1 (stereo not drawn) [Example 491],Ki ([1]; read-out: Rat H3 kI): < 200 nM; Ki ([2]; read-out: Human H3 Ki): < 200 nM
115 to 116 °C,–,–,Clc1ccc(COc2ccc3c(c2)CCC2(CCN(C4CCC4)CC2)O3)cc1 [Example 288],"Ki [1, 3]: < 200 nM; Ki [2, 4]: < 200 nM"
183 to 185 °C,–,–,O=c1ccc(CCc2ccc3c(c2)COC2(CCN(C4CCC4)CC2)O3)c[nH]1 [Example 528],Ki ([1]; read-out: Rat H3 kI): < 200 nM; Ki ([2]; read-out: Human H3 Ki): < 200 nM
54 °C,–,–,CCOc1ccc(-c2ccc3c(c2)OC2(CCN(C4CCC4)CC2)OC3)cn1 [Example 95],"Ki [1, 9]: > 1000 nM; Ki [2, 10]: > 1000 nM"
158 to 159 °C,< 200,< 200,c1cc2c(cc1OCc1nnc(C3CC3)o1)CCC1(CCN(C3CCC3)CC1)O2 [Example 671],–
80 to 82 °C,< 200,< 200,CN(C)C(=O)c1ccc(-c2ccc3c(c2)COC2(CCN(C4CCC4)CC2)O3)cc1Cl [Example 608],–
167 to 170 °C,< 200,< 200,CN(C)C(=O)c1cccc(COc2ccc3c(c2)CCC2(CCN(C4CCC4)CC2)O3)n1 [Example 670],–
162 to 164 °C,> 1000,200 to 1000,COc1ccc(-c2ccc3c(c2)COC2(CCN(C4COC4)CC2)O3)cn1 [Example 713],–
252 to 254 °C,< 200,< 200,CNC(=O)c1ccc(-c2ccc3c(c2)COC2(CCN(C4CCC4)CC2)O3)cc1O [Example 704],–
71.2 to 73.6 °C,< 200,< 200,O=c1c(Cl)c(-c2ccc3c(c2)COC2(CCN(C4CCC4)CC2)O3)ccn1CC(F)(F)F [Example 784],–
229 to 231 °C,–,–,COc1ccc(Cc2ccc3c(c2)COC2(CCN(C4CCC4)CC2)O3)cn1 [Example 516],Ki ([1]; read-out: Rat H3 kI): < 200 nM; Ki ([2]; read-out: Human H3 Ki): < 200 nM
174 to 176 °C,–,–,OC1(c2ccc3c(c2)COC2(CCN(C4CCC4)CC2)O3)CCSCC1 [Example 465],Ki ([1]; read-out: Rat H3 kI): < 200 nM; Ki ([2]; read-out: Human H3 Ki): < 200 nM
78.6 to 80.4 °C,–,–,O=C(NCCO)c1c(F)cc(-c2ccc3c(c2)COC2(CCN(C4CCC4)CC2)O3)cc1F [Example 261],"Ki [1, 3]: < 200 nM; Ki [2, 4]: < 200 nM"
120 to 126 °C,–,–,O=C1CCC(c2ccc3c(c2)COC2(CCN(C4CCC4)CC2)O3)CN1CC(F)F (stereo not drawn) [Example 560],Ki ([1]; read-out: Rat H3 kI): 200 to 1000 nM; Ki ([2]; read-out: Human H3 Ki): 200 to 1000 nM
147.7 to 149.8 °C,< 200,< 200,CCS(=O)(=O)C1CCN(c2ccc3c(c2)COC2(CCN(C4CCC4)CC2)O3)CC1 [Example 648],–
175 to 176 °C,–,–,COc1cc(C(=O)Nc2ccc3c(c2)COC2(CCN(C4CCC4)CC2)O3)ccn1 [Example 267],"Ki [1, 3]: < 200 nM; Ki [2, 4]: < 200 nM"
128 to 132 °C,–,–,OC1CC=C(c2ccc3c(c2)COC2(CCN(C4CCC4)CC2)O3)CC1 (stereo not drawn) [Example 525],Ki ([1]; read-out: Rat H3 kI): < 200 nM; Ki ([2]; read-out: Human H3 Ki): < 200 nM
197 to 198 °C,–,–,"CNC(=O)c1ccc(-c2ccc3c(c2)CC2(CCN(C4CCC4)CC2)O3)cc1 [Example 134, 1′-Cyclobutyl-spirobenzofuran-2(3H)-4′-piperidine-(5-(4-methylaminocarbamoylphenyl))]","Ki [1, 9]: < 200 nM; Ki [2, 10]: < 200 nM"
230 to 240 °C (dec.),< 200,< 200,O=C(O)c1cc(-c2ccc3c(c2)COC2(CCN(C4CCC4)CC2)O3)cs1 [Example 570],–
